From PubChem BioAssay (NCI) come the findings set out here.

Among the test systems are HCT-116 colon; RPMI-8226 leukemia; NCI-H23 lung; CCRF-CEM leukemia; IGROV1 ovarian; U251 CNS; 786-0 renal; SK-MEL-5 melanoma; SF-295 CNS; RXF 393 renal.
Holding throughout (test): NCI tumour cell line growth inhibition, 48 h

SMILES strings stand for the structures. Where “and” joins values, the source holds several entries; their conditions need not be identical. Identical values can stand only once.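 Assay format: 96-well plates, 48-hour exposure. GI50 marks 50% less growth. TGI marks complete inhibition of growth.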

As to `CC(=O)NNc1nc(C)c(C(=O)NNC(=O)C(=O)Nc2nc3ccc([N+](=O)[O-])cc3s2)s1`, the TGI in the assay on HCT-116 colon was over 100 µM; with RPMI-8226 leukemia, over 80.5 µM; in the assay on NCI-H23 lung, over 100 µM; in the assay on CCRF-CEM leukemia, 56.5 µM; with IGROV1 ovarian, over 83.7 µM; with U251 CNS, over 100 µM. For the same compound, the TGI in the assay with 786-0 renal is over 100 µM; with SK-MEL-5 melanoma, over 81.5 µM; with SF-295 CNS, over 100 µM; in the assay on RXF 393 renal it was over 95.6 µM.

With `c1ccc2nc3c(cc4ccccn43)nc2c1`, the GI50 is 23.5 µM in the assay on HCT-116 colon; over 100 µM in the assay with RPMI-8226 leukemia; 37.6 µM in the assay on NCI-H23 lung; over 100 µM in the assay with CCRF-CEM leukemia; 1.81 µM in the assay on IGROV1 ovarian; 39.9 µM in the assay on U251 CNS. In addition, the GI50 with 786-0 renal is 35.7 µM; in the assay with SK-MEL-5 melanoma, 25.8 µM; in the assay on SF-295 CNS, 49.8 µM; with RXF 393 renal it was 30.1 µM. Further, the TGI is over 100 µM in the assay on HCT-116 colon; over 100 µM in the assay on RPMI-8226 leukemia; over 100 µM in the assay on NCI-H23 lung; over 100 µM in the assay with CCRF-CEM leukemia; 26.1 µM in the assay on IGROV1 ovarian; over 100 µM in the assay with U251 CNS. Besides, the TGI in the assay on 786-0 renal, with SK-MEL-5 melanoma, with SF-295 CNS and in the assay with RXF 393 renal was over 100 µM in each case.

Turning to `O=C(/C=C/c1ccccc1)CC(c1ccccc1)N1CCOCC1` (stereo not drawn), the GI50 in the assay with HCT-116 colon is 1.15 µM; in the assay on RPMI-8226 leukemia, 1.98 µM; with NCI-H23 lung it was 2 µM; with CCRF-CEM leukemia it was 2.42 µM; in the assay with IGROV1 ovarian it was 2.14 µM; in the assay with U251 CNS it was 2.44 µM. Further, the GI50 is 1.95 µM in the assay with 786-0 renal, 4.87 µM in the assay with SK-MEL-5 melanoma, 2.7 µM in the assay on SF-295 CNS and 1.61 µM with RXF 393 renal. Moreover, the TGI in the assay with HCT-116 colon is 2.37 µM; in the assay with RPMI-8226 leukemia, 5.21 µM; with NCI-H23 lung, 4.4 µM; in the assay with CCRF-CEM leukemia it was 7.3 µM; with IGROV1 ovarian it was 5.78 µM; in the assay on U251 CNS it was 5.21 µM. The TGI in the assay on 786-0 renal was found to be 3.61 µM; in the assay with SK-MEL-5 melanoma it was 17.5 µM; in the assay on SF-295 CNS, 10.5 µM; in the assay with RXF 393 renal, 3.03 µM.

Regarding `NC(=O)/C=C/C(=O)O`, the TGI with HCT-116 colon, in the assay on RPMI-8226 leukemia, in the assay with NCI-H23 lung, in the assay with CCRF-CEM leukemia, in the assay on IGROV1 ovarian and in the assay with U251 CNS was over 5000 µM throughout. The TGI in the assay with 786-0 renal, with SK-MEL-5 melanoma, in the assay on SF-295 CNS and in the assay on RXF 393 renal was over 5000 µM in each case.

In the case of `COC(=O)/C(C#N)=C1\CCC(C(=O)OC)N1C` (stereo not drawn), the TGI in the assay with HCT-116 colon, in the assay on RPMI-8226 leukemia, with NCI-H23 lung, in the assay on CCRF-CEM leukemia, in the assay on IGROV1 ovarian and in the assay with U251 CNS was over 100 µM in each case. Further, the TGI in the assay on 786-0 renal, with SK-MEL-5 melanoma, in the assay with SF-295 CNS and in the assay on RXF 393 renal was over 100 µM each time.

For the compound `CCC1=C[C@@H]2CN(C1)Cc1c([nH]c3ccccc13)[C@@](C(=O)OC)(c1cc3c(cc1OC)N(C)[C@H]1[C@@](O)(C(=O)OC)[C@H](OC(C)=O)[C@]4(CC)[C@@H]5C[C@@H]5CN5CC[C@]31[C@@H]54)C2`, the GI50 was under 0.005 µM in the assay on HCT-116 colon; under 0.005 µM with RPMI-8226 leukemia; < 0.005 µM and 0.0492 µM with NCI-H23 lung; under 0.005 µM in the assay on CCRF-CEM leukemia; under 0.005 µM in the assay on U251 CNS; < 0.005 µM and 0.0139 µM in the assay with 786-0 renal. For the same compound, the GI50 with SK-MEL-5 melanoma was < 0.005 µM and 0.017 µM; with SF-295 CNS it was under 0.005 µM; with RXF 393 renal it was 0.0105 µM. Further, the TGI was 5.18 µM and 13 µM with HCT-116 colon; 0.656 µM with RPMI-8226 leukemia; 10.2 µM and 38.4 µM with NCI-H23 lung; 6.87 µM and 14.5 µM in the assay with IGROV1 ovarian; 0.671 µM in the assay on U251 CNS; 1.58 µM and 14.2 µM in the assay with 786-0 renal. The TGI was 0.327 µM and 1.77 µM in the assay with SK-MEL-5 melanoma; < 0.005 µM and 0.011 µM with SF-295 CNS; 11.1 µM in the assay on RXF 393 renal.

On to `Cc1nc(Nc2n[nH]c3c2CN(C(=O)N[C@H](CN(C)C)c2ccccc2)C3(C)C)c2sccc2n1`, for which the GI50 with HCT-116 colon is 0.00577 µM and < 0.01 µM; with RPMI-8226 leukemia, 0.148 µM and 0.107 µM; in the assay on NCI-H23 lung, 0.0136 µM and 0.0207 µM; in the assay on CCRF-CEM leukemia, 0.286 µM and 0.4 µM; with IGROV1 ovarian, 0.0127 µM and 0.0247 µM; with U251 CNS it was 0.0242 µM and 0.0325 µM. The GI50 was 0.281 µM and 0.82 µM with 786-0 renal; 0.142 µM and 0.162 µM with SK-MEL-5 melanoma; 0.078 µM and 0.066 µM in the assay on SF-295 CNS; 0.143 µM and 0.751 µM with RXF 393 renal. The TGI with HCT-116 colon was > 5.74 µM and 10.3 µM; in the assay with RPMI-8226 leukemia, > 4.74 µM and 5.69 µM; in the assay on NCI-H23 lung, 2.8 µM and 4.42 µM; in the assay with CCRF-CEM leukemia, over 25.1 µM; in the assay on IGROV1 ovarian it was > 3.53 µM and 16.7 µM; in the assay with U251 CNS it was > 7.15 µM and 8.11 µM. The TGI was 4.75 µM and 4.45 µM in the assay on 786-0 renal; 1.84 µM and 2.26 µM with SK-MEL-5 melanoma; > 10 µM and 8.62 µM with SF-295 CNS; 1.89 µM and 2.53 µM with RXF 393 renal.

In the case of `CC(=O)OC1COC(n2c(=S)n(-c3ccccc3)c(=O)c3cc(Br)ccc32)C(OC(C)=O)C1OC(C)=O` (stereo not drawn), the TGI with HCT-116 colon is over 100 µM; in the assay on RPMI-8226 leukemia, over 100 µM; with NCI-H23 lung, over 100 µM; with CCRF-CEM leukemia it was over 100 µM; in the assay on IGROV1 ovarian it was over 100 µM; with U251 CNS it was 44.5 µM. For the same compound, the TGI with 786-0 renal was over 100 µM; in the assay on SK-MEL-5 melanoma, over 100 µM; in the assay with SF-295 CNS, over 100 µM; in the assay with RXF 393 renal, 66.6 µM.

For the compound `O=S(=O)(CCOCc1ccc(-c2ccc3ncnc(Nc4ccc(OCc5cccc(F)c5)c(Cl)c4)c3c2)o1)c1ccccc1`, the GI50 in the assay on HCT-116 colon, in the assay with RPMI-8226 leukemia, in the assay on NCI-H23 lung, with CCRF-CEM leukemia, in the assay on IGROV1 ovarian and in the assay on U251 CNS was over 25 µM each time. The GI50 with 786-0 renal, with SK-MEL-5 melanoma, in the assay with SF-295 CNS and in the assay on RXF 393 renal was over 25 µM throughout. In addition, the TGI in the assay with HCT-116 colon, with RPMI-8226 leukemia, in the assay on NCI-H23 lung, in the assay with CCRF-CEM leukemia, in the assay on IGROV1 ovarian and with U251 CNS was over 25 µM each time. The TGI in the assay with 786-0 renal, in the assay on SK-MEL-5 melanoma, in the assay on SF-295 CNS and in the assay with RXF 393 renal was over 25 µM throughout.
